Results on 31 compounds are retold here after patent US20230066830A1, “METHODS AND COMPOSITIONS FOR INDUCING APOPTOSIS IN CANCER STEM CELLS” (VIRGINIA COMMONWEALTH UNIVERSITY, priority 2019, published 2023).

For the first experiment, the target named is T1, PDZ1 domain of MDA-9/Syntenin (PDZ12) (Homo sapiens, UniProt O00560).
T1 construct: HSQC spectrum of 50 μM PDZ12 caused by compound at 1:1 molar ratio
T1 sequence (O00560 110-273 limits assumed): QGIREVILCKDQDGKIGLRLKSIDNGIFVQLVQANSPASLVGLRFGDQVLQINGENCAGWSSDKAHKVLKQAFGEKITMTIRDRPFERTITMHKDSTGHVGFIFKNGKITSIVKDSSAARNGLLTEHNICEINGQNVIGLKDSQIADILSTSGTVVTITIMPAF
Nature of the experiment: [15N,1H] HSQC chemical shift change ranking of compound affinity. In kind it is binding. The note with it: chemical shift changes (DPPM) of backbone amide of residue 147, 50 μM PDZ12, compound at 1:1 molar ratio. The source says:
*Rank ordering of compound affinity for PDZ1 were estimated based on chemical shift changes (DPPM) of the backbone amide of residue 147 on the [^15N,^1H] […] Kd values reported in parentheses were obtained by NMR titration experiments following the chemical shifts of the backbone amide of residue 147 at different ligand concentrations.
Regarding `O=c1c2c([nH]c3nc(COc4ccccc4)nn13)CCC2` [cmpd11], the Binding affinity ranking is 5 (5 for DPPM 0.08-0.1).
The same measure, in the same setting: the figure for `Cc1cc(=O)n2nc(C(=O)Nc3cccc(Cl)c3)nc2[nH]1` [cmpd10] is 4 (4 for DPPM 0.06-0.08); for `Cc1cc(=O)n2nc(C(=O)Nc3ccc(O)cc3)nc2[nH]1` [112D11] it is 2 (2 for DPPM 0.02-0.04); for `Cc1cc(=O)n2nc(C(=O)Nc3cc(Cl)c(N)cc3Cl)nc2[nH]1` [112G4] it is 6 (6 for DPPM above 0.1).
For the compound `Cc1cc(NC(=O)c2nc3[nH]c4c(c(=O)n3n2)CCC4)c(C)cc1NC(=O)CCc1nnc(-c2ccsc2)o1` [113B11], the Binding affinity ranking is listed as 3 (3 for DPPM 0.04-0.06).
In the case of `Nc1ccc(NC(=O)c2nc3[nH]c4c(c(=O)n3n2)CCC4)cc1` [112G11], the Binding affinity ranking is reported as 2 (2 for DPPM 0.02-0.04).
For the compound `Cc1cc(=O)n2nc(SCc3ccccc3)nc2[nH]1` [cmpd4], the Binding affinity ranking is listed as 4 (4 for DPPM 0.06-0.08).
Still for that read-out and setting: as for `O=C(Nc1ccc(O)c(F)c1)c1nc2[nH]c3c(c(=O)n2n1)CCC3` [112F12], the figure is 2 (2 for DPPM 0.02-0.04); as for `CCCc1cc(=O)n2nc(COc3ccccc3)nc2[nH]1` [cmpd14], 1 (1 for DPPM 0.00-0.02).
Still for that read-out and setting: as for `O=c1c2c([nH]c3nc(CCc4ccccc4)nn13)CCC2` [cmpd13], the figure is 3 (3 for DPPM 0.04-0.06); as for `Cc1cc(=O)n2nc(C(=O)Nc3cc(Cl)c(O)c(Cl)c3)nc2[nH]1` [112G1], 6 (6 for DPPM above 0.1).
On to `O=C(Nc1ccc(O)c(Cl)c1)c1nc2[nH]c3c(c(=O)n2n1)CCC3` [112F10], for which the Binding affinity ranking is 4 (4 for DPPM 0.06-0.08).
For the compound `O=c1[nH]c2sc3c(c2c2ncnn12)CCCC3` [cmpd6], the Binding affinity ranking is 1 (1 for DPPM 0.00-0.02).
Regarding `Cc1cc(=O)n2nc(C(=O)Nc3ccc4c(c3)OCCO4)nc2[nH]1` [cmpd7], the Binding affinity ranking is 2 (2 for DPPM 0.02-0.04).
As to `O=c1c2c([nH]c3nc(NCc4cccs4)nn13)CCC2` [cmpd3], the Binding affinity ranking is on record as 1 (1 for DPPM 0.00-0.02).
Regarding `Cc1cc(=O)n2nc(CCc3ccccc3)nc2[nH]1` [cmpd2], the Binding affinity ranking was 3 (3 for DPPM 0.04-0.06).
Still for that read-out and setting: the figure for `COc1cccc(NC(=O)c2nc3[nH]c(C)cc(=O)n3n2)c1` [cmpd8] is 3 (3 for DPPM 0.04-0.06); for `Cc1[nH]c2nc(C(=O)NCc3ccccc3)nn2c(=O)c1C` [cmpd5] it is 2 (2 for DPPM 0.02-0.04); for `Cc1cc(=O)n2nc(NCc3ccccc3)nc2[nH]1` [cmpd1] it is 2 (2 for DPPM 0.02-0.04).
Same read-out and setting: as for `Cc1cc(O)n2nc(C(=O)Nc3ccc(O)cc3)nc2n1` [112F1], the figure is 1 (1 for DPPM 0.00-0.02).
`Cc1cc(NC(=O)c2nc3[nH]c4c(c(=O)n3n2)CCC4)c(C)cc1NC(=O)CCc1nnc(-c2cccc(C(F)(F)F)c2)o1` [112H9]: the Binding affinity ranking is 2 (2 for DPPM 0.02-0.04).
For the compound `O=C(Nc1ccc(O)cc1)c1nc2[nH]c3c(c(=O)n2n1)CCC3` [112E12], the Binding affinity ranking is reported as 1 (1 for DPPM 0.00-0.02).
Still for that read-out and setting: as for `Cc1cc(=O)n2nc(C(=O)Nc3ccc(N)cc3)nc2[nH]1` [112E7], the figure is 1 (1 for DPPM 0.00-0.02).
`Cc1cc(=O)n2nc(C(=O)Nc3ccc(O)c(F)c3)nc2[nH]1` [112G2]: the Binding affinity ranking is reported as 4 (4 for DPPM 0.06-0.08).
Turning to `Cc1c(C)c(NC(=O)c2nc3[nH]c4c(c(=O)n3n2)CCC4)c(C)c(C)c1N` [113B8], the Binding affinity ranking is reported as 5 (5 for DPPM 0.08-0.1).
Still for that read-out and setting: the figure for `Cc1cc(=O)n2nc(COc3ccccc3)nc2[nH]1` [30A9] is 4 (4 for DPPM 0.06-0.08); for `COc1ccc(Br)c(-c2nnc(CCC(=O)Nc3cc(C)c(NC(=O)c4nc5[nH]c6c(c(=O)n5n4)CCC6)cc3C)o2)c1` [113B12] it is 1 (1 for DPPM 0.00-0.02).
For `Cc1cc(NC(=O)c2nc3[nH]c4c(c(=O)n3n2)CCC4)c(C)cc1NC(=O)CCc1nnc(-c2ccccc2)o1` [113B7], the Binding affinity ranking is on record as 4 (4 for DPPM 0.06-0.08).
`Cc1cc(NC(=O)c2nc3[nH]c4c(c(=O)n3n2)CCC4)c(C)cc1NC(=O)Cc1ccc(-c2ccccc2)cc1` [113B9]: the Binding affinity ranking result was “N.B”.
Still for that read-out and setting: the figure for `Cc1cc(=O)n2nc(C(=O)Nc3ccc4c(c3)OCO4)nc2[nH]1` [cmpd9] is 3 (3 for DPPM 0.04-0.06).

Another experiment deals with DU-145 and PC3-ML PCSCs. Description: Live/Dead chemosensitivity of PCSCs with STAT3 inhibitor. In kind it is cell-based, human. The note with it: STAT3 inhibitor with docetaxel or trichostatin-A. As to the method: Live/Dead cell imaging was performed to assess fluorescence based cell viability. Staining was performed as per the manufacturer's directions (Invitrogen™), which was followed by imaging utilizing laser confocal microscopy (Leica©). The images were analyzed by Zeiss© ZEN software. Docetaxel, STATTIC and Trichostatin-A (TSA) were obtained from Sigma. The PCSCs were serum-starved for 24 h and then treated with the drugs for 48 h at a 10 μM concentration (unless mentioned otherwise) prior to assessing the sensitivity of PCSCs to these drugs. DMSO treated cells were used as control. In vitro PDZ1i treatments occurred at 25 μM concentration. In vivo PDZ1i treatments occurred at 25 mg/kg body weight of the mice, 3 times a week for a month.
Take `O=[N+]([O-])c1ccc2c(c1)S(=O)(=O)C=C2` [STATTIC]: the “effect on PCSC chemosensitivity” value was “caused chemosensitivity to both docetaxel and trichostatin-A”.
